Results reported in patent US20030113409A1, “Tellurium containing nutrient formulation and process for enhancing the cumulative weight gain or feed efficacy in poultry” (priority 2001, published 2003).

Key:
[1] = Phase I and II, cancer patients; cited from earlier work
[2] = Growth performance of three day old chicks fed diet with AS101 (body weight, feed intake, feed efficacy, liver weight, survival, histology); conditions: for increase in BW over Group 1: versus standard diet without selenium
Experimental: Each chick included in the study weighed exactly 80 g. via accurate electronic scale and each chick was marked. There were five different treatment groups, each group comprising ten chicks in four repetitions. The five groups of animals were tested as follows: Group 1 received a standard feeding diet without selenium; Group 2 received the standard feeding diet supplemented with 500 mg/metric ton of selenium; Group 3 received the same diet as Group 2 with the addition of AS101 at a concentration of 500 mg/metric ton; Group 4 received the same diet as Group 2 with the addition of AS101 at a concentration of 2,500 mg/metric ton; Group 5 received the same diet as Group 2 with the addition of AS101 at a concentration of 12,500 mg/ton. All the experiments were randomized and open. The results of each group represent the mean of 40 chicks. For growth period days 3-24, the performance of groups of three day old birds, fed AS101 concentrations of 500 mg/metric ton, 2,500 mg/metric ton or 12,500 mg/metric ton were compared to groups of control birds fed either a standard feeding diet without selenium or a standard feeding diet with an addition of […] selenium. Body weight (BW) was measured after 24 days. At the end of 24 days, the animals were examined for gross signs of toxicity. A gross visual examination was carried out. The liver of each chick was extracted and weighed.

[3] = intraruminal pellets selenium, dairy heifers; cited from earlier work
[4] = Treatment 3: AS101 500 mg/metric ton
[5] = Treatment 4: AS101 2,500 mg/metric ton
[6] = Treatment 4: AS101 2,500 mg/metric ton, control = Treatment 2
[7] = Treatment 5: AS101 12,500 mg/ton
[8] = Treatment 5: AS101 12,500 mg/ton, control = Treatment 2
[9] = Treatment 2: selenium supplemented diet, no AS101

Cl[TeH]1(Cl)(Cl)OCCO1 [AS101, ammonium trichloro(dioxyethylene-O,O′)tellurate]
toxicity in clinical trials [1]: non-toxic
change in BW (significance) ([2]; 12.5 g/ton AS101): significant increase in BW
BW increase ([2]; AS101 500 mg/ton added to mixture that includes selenium): 1.7%
BW increase ([2]; AS101 2,500 mg/ton added to mixture that includes selenium): 2.3%
BW increase ([2]; AS101 12,500 mg/ton added to mixture that includes selenium): 5%
increase in BW over Group 1 ([2]; Group 5, highest level of tellurium): 5.4%
FEED EFFICACY [2, 4]: 0.731 g/g
FEED INTAKE [2, 4]: 1382 g
FE, % OF CONTROL ([2]; Treatment 3: AS101 500 mg/metric ton, control = Treatment 2): 103.5%
BW, % OF CONTROL ([2]; Treatment 3: AS101 500 mg/metric ton, control = Treatment 2 (selenium diet)): 101.7%
BW-24D ([2]; Treatment 3: standard diet + selenium 500 mg/metric ton + AS101 500 mg/metric ton, mean of 40 chicks): 1090 g
FEED EFFICACY [2, 5]: 0.74 g/g
FEED INTAKE [2, 5]: 1375 g
BW, % OF CONTROL [2, 6]: 102.3%
FE, % OF CONTROL [2, 6]: 104.8%
BW-24D ([2]; Treatment 4: standard diet + selenium + AS101 2,500 mg/metric ton, mean of 40 chicks): 1097 g
FEED EFFICACY [2, 7]: 0.738 g/g
FEED INTAKE [2, 7]: 1417 g
BW, % OF CONTROL [2, 8]: 105%
FE, % OF CONTROL [2, 8]: 104.5%
BW-24D ([2]; Treatment 5: standard diet + selenium + AS101 12,500 mg/ton, mean of 40 chicks): 1126 g
survival rate ([2]; all groups, no mortalities): 100%
increase of growth rate of young chicks ([2]; diet with at least 0.5 gm selenium per metric ton + 12.5 gm tellurium compound per metric ton, by day 21): up to 5%
food intake altered by feeding with AS101 ([2]; in vivo): not altered
histological studies ([2]; in vivo): No pathological changes were observed

[Se] [selenium, reference compound]
increase in BW over Group 1 ([2]; Group 2, addition of 300 mg/ton of selenium): 0.4%
FEED EFFICACY [2, 9]: 0.706 g/g
FEED INTAKE [2, 9]: 1405 g
LIVER, % OF BW [2, 9]: 2.32%
BW-24D ([2]; Treatment 2: standard diet supplemented with 500 mg/metric ton of selenium, no AS101): 1072 g
weight gains over control [3]: 0.11 to 0.12 kg/day
